Drawing on patent US12226403B2 (SPERO THERAPEUTICS, INC., priority 2016, dated 2025), this text covers bioavailability and AUC for one compound.

The nature of data set [1]: PK parameters for oral administration to monkeys. Type of data set: in vivo. Conditions: cynomolgus monkey, plasma, 100 mg; oral tablets vs previously generated IV data, estimated; read-out: bioavailability of tebipenem. The protocol:
Each animal received a one week wash out prior to the next dose and each served as its own control. Blood samples were collected into K2EDTA tubes before processing to plasma. Samples were obtained at 15 minutes, 30 minutes, 1 hours, 2 hours, 4 hours, 6 hours, 8 hours, 10 hours, 12 hours, 16 hours, and 24 hours post administration. […] Non-compartmental analysis used to derive pharmacokinetic parameters of the composite time vs. concentration profiles were performed for each dose level using Phoenix Winnonlin v. 6.4. Plasma concentration of tebipenem for each time point was determined by HPLC.

Data set [2] can be described thus: Previously generated IV data. Conditions: in vivo, 10 mg/kg dose. The source says: Cmax was reduced with the modified release formulation compared to the immediate release (free base and HBr) formulation but AUCall was relatively constant between the formulations. AUCinf could not be calculated due to the variability in the terminal elimination profile. […] Mean residence time was increased in the extended release formulation.

Usually bioavailability stands for dose-corrected exposure relative to a reference, in per cent. In general, AUC refers to the area under the concentration-time curve, a measure of exposure. A low value points to low exposure.

As for `C[C@@H](O)[C@H]1C(=O)N2C(C(=O)O)=C(SC3CN(C4=NCCS4)C3)[C@H](C)[C@H]12` [tebipenem], the bioavailability in data set [1] was 39 to 50%. In data set [2], this compound registered an AUC of 13100 ng·h/mL.
